Here are results for seven molecules from PMC6742494 (ACS infectious diseases, 2016).

The subject of one data set is THP-1 cells. Kind of data set: cells. It is filed as cell-based. As to conditions: Homo sapiens, THP-1, 18 h, read-out: IC50 THP-1.
Data set [1] concerns Mtb Haarlem 23 (RIF-sensitive). Kind of data set: microbe, parasite or virus in culture. Particulars: Mycobacterium tuberculosis. It is filed as cell-based.
Another data set has as its system Mtb T 21 (INH-sensitive). As to the kind of experiment: microbe, parasite or virus in culture. It is filed as cell-based. Particulars: Mycobacterium tuberculosis.
Another data set deals with Mtb H37Rv. Kind of data set: microbe, parasite or virus in culture. Particulars: for MIC99: Mycobacterium tuberculosis, H37RV. It is filed as cell-based, Mycobacterium tuberculosis.
For the next data set, the system named is PBS-starved H37Rv. Type of data set: cell-based, Mycobacterium tuberculosis.
The test system of data set [2] is Mtb Beijing 26 (RIF-sensitive). Kind of data set: microbe, parasite or virus in culture. As to conditions: Mycobacterium tuberculosis. Type of data set: cell-based.
In data set [3] the test system is intracellular Mtb H37Rv in THP-1 cells. Type of data set: cell-based, Mycobacterium tuberculosis.
Another data set has as its system Pseudomonas aeruginosa. Kind of data set: microbe, parasite or virus in culture. It is filed as cell-based.
For a further data set, the system named is Escherichia coli. Kind of data set: microbe, parasite or virus in culture. It is filed as cell-based.
The subject of data set [4] is M. smegmatis mc^2155. Type of data set: cell-based, Mycobacterium smegmatis. Particulars: pH 5.5.
The subject of data set [5] is M. bovis BCG. It is filed as cell-based, Mycobacterium bovis.
Data set [6] has as its system M. bovis BCG. Kind of data set: microbe, parasite or virus in culture. It is filed as cell-based. As to conditions: Mycobacterium tuberculosis variant bovis BCG.
For the next data set, the system named is Staphylococcus aureus. Kind of data set: microbe, parasite or virus in culture. It is filed as cell-based.
Another data set concerns Bacillus subtilis. Kind of data set: microbe, parasite or virus in culture. Type of data set: cell-based.
Data set [7] relates to normal human foreskin fibroblast (HFF) cells. Kind of data set: cells. It is filed as cell-based. Particulars: 48 h, read-out: IC50 HFF.
A short description of data set [8]: in vitro. As to conditions: human, microsomes.
For data set [9] the following is noted: mouse; for Clint: microsomes.
Data set [10] can be described thus: in vitro. As to conditions: human, hepatocytes.
For data set [11] the following is noted: human.
The test system of data set [12] is M. bovis BCG. Type of data set: cell-based, Mycobacterium bovis. The source holds these as a separate data set.
Data set [13] has as its system M. smegmatis mc^2155. Kind of data set: microbe, parasite or virus in culture. It is filed as cell-based, Mycobacterium smegmatis. Particulars: Mycolicibacterium smegmatis.
Data set [14] has as its system M. smegmatis mc^2155. Type of data set: cell-based, Mycobacterium smegmatis.
Data set [15] is described as follows: in vitro. As to conditions: mouse, microsomes.
Data set [16] has as its system M. smegmatis mc^2155. Particulars: cited from earlier work.
Data set [17] has as its system M. bovis BCG. It is filed as cell-based, Mycobacterium bovis. The source holds these as a separate data set.

≈ marks a conversion by molar mass, not a printed value. Where “and” joins values, the source holds several entries; their conditions need not be identical. Equal values may be shown once. Read-outs that look alike come from different tables or passages of the source.

Take `CO[C@H]1/C=C/O[C@@]2(C)Oc3c(C)c(O)c4c(O)c(c(/C=N/N5CCN(C)CC5)c(O)c4c3C2=O)NC(=O)/C(C)=C\C=C\[C@H](C)[C@H](O)[C@@H](C)[C@@H](O)[C@@H](C)[C@H](OC(C)=O)[C@@H]1C` [RIF, rifampicin]: the IC50 (commonly the point on the concentration scale where inhibition reaches its midpoint) in the data set with THP-1 cells stood at 240 mg/L (≈ 292 µM). The MIC (in data set [1]; with Mtb T 21 (INH-sensitive); in [2]) was 0.0125 mg/L (≈ 0.0152 µM) each time. Also, in the data set on Mtb H37Rv, the “1×MIC (in vitro MIC)” value was determined as 0.025 mg/L. Moreover, the “sensitivity of non-replicating Mtb” value in the data set on PBS-starved H37Rv is “tolerant”.
On to `CC[C@@H](CO)NCCN[C@@H](CC)CO` [EMB, ethambutol], for which the MIC in [1] stood at 1 mg/L (≈ 4.89 µM); against Mtb T 21 (INH-sensitive) it was 0.5 mg/L (≈ 2.45 µM); in data set [2], 1 mg/L (≈ 4.89 µM). The MIC99 with Mtb H37Rv (120 h, read-out: MIC (MIC99)) stood at 2 mg/L. Also, the “sensitivity of non-replicating Mtb” value in the data set with PBS-starved H37Rv is “tolerant”.
For the molecule `NNC(=O)c1ccncc1` [INH, isoniazid], the IC50 in the data set on THP-1 cells was 7000 mg/L (≈ 51000 µM). Besides, the values for the MIC (in data set [1]; against Mtb T 21 (INH-sensitive); in data set [2]) were 0.025 mg/L (≈ 0.182 µM), 0.05 mg/L (≈ 0.365 µM) and 0.025 mg/L (≈ 0.182 µM), respectively. Also, the “1×MIC (in vitro MIC)” value in the data set with Mtb H37Rv was 0.05 mg/L. Besides, the “sensitivity of non-replicating Mtb” value in the data set on PBS-starved H37Rv was “tolerant”.
Take `FC(F)(F)Oc1ccc(Oc2ccc(CNCCNC3C4CC5CC(C4)CC3C5)cc2)cc1` (centres unmarked) [Compound 8, N^1-adamantan-2-yl-N^2-(4-(4-(trifluoro-methoxy)phenoxy)benzyl)ethane-1,2-diamine]: the “reduction in bacterial cfu compared to untreated infected macrophages” value in data set [3] is recorded as “two-log reduction”. For the same molecule, the concentration for half-maximal inhibition (IC50) in the data set with Pseudomonas aeruginosa came to 12.5 mg/L (≈ 27.1 µM); in the data set on Escherichia coli, 6.25 mg/L (≈ 13.6 µM); in the data set with THP-1 cells, 4.4 mg/L (≈ 9.55 µM); in the data set on Staphylococcus aureus, 6.25 mg/L (≈ 13.6 µM); in the data set with Bacillus subtilis, 6.25 mg/L (≈ 13.6 µM); in data set [7], 16.1 mg/L (≈ 35 µM). The “intrabacterial pH” value with M. smegmatis mc^2155 [4] was about 7. Also, the “effect on ΔpH” value in the data set on M. bovis BCG [5] is on record as “None of the concentrations tested reduced ΔpH”. For the same molecule, the MIC was 0.575 µg/mL and 1.25 µM against M. bovis BCG [6]; 1.2 mg/L (≈ 2.61 µM) in [1]; 0.58 mg/L (≈ 1.26 µM) with Mtb T 21 (INH-sensitive); 9.21 µg/mL and 20 µM against M. smegmatis mc^2155 [13]; 1.2 mg/L (≈ 2.61 µM) in data set [2]. For the same molecule, the MIC99 came out at 2.5 µM with Mtb H37Rv and 1.2 mg/L in the data set on Mtb H37Rv (120 h, read-out: MIC (MIC99)). The half-life – broadly, the time needed for the level to fall by half in the phase considered – is 231 min in the data set “in vitro [8]”, 190 min in “in vitro [10]” and 24.1 min in “in vitro [15]”. For the same molecule, the “Predicted EH” value was 0.557 in [9] and 0.144 in [11]. Besides, the Clint in data set [9] amounted to 113 mL/min. Further, the “reduction in viability of non-replicating Mtb” value in the data set on PBS-starved H37Rv was 3 log. The “sensitivity of non-replicating Mtb” value with PBS-starved H37Rv is reported as “sensitive”. Besides, in the data set with M. bovis BCG [12], the “effect on intracellular ATP” value is given as “reduces intracellular ATP in a dose-dependent manner”. In addition, in the data set with M. smegmatis mc^2155 [14], the “effect on ΔΨ (red / green fluorescence ratio of DiOC2)” value is “rapid depletion of ΔΨ”.
In the case of `CC(C)=CCC/C(C)=C/CNCCNC1C2CC3CC(C2)CC1C3` (centres unmarked) [SQ109], the “effect on ΔΨ and ΔpH” value in the data set with M. smegmatis mc^2155 [16] is “rapidly depleted both the transmembrane potential (ΔΨ) and the chemical proton gradient (ΔpH)”. In addition, the “MIC (MIC99)” value in the data set on Mtb H37Rv came out at 1.6 mg/L (≈ 4.84 µM). Also, the MIC99 in the data set on Mtb H37Rv (120 h, read-out: MIC (MIC99)) amounted to 1.56 mg/L. The half-life in the data set “in vitro [8]” was found to be 2.97 min; in the data set “in vitro [15]” it was 2.44 min. Also, the “Predicted EH” value was 0.926 in data set [9] and 0.929 in data set [11]. The Clint in data set [9] was 1118 mL/min. Moreover, the “effect on ΔΨ” value with M. bovis BCG [17] is recorded as “rapidly deplete ΔΨ”.
`N#CC(C#N)=NNc1cccc(Cl)c1` [CCCP, carbonyl cyanide m-chlorophenylhydrazone]: the “intrabacterial pH” value in the data set on M. smegmatis mc^2155 [4] was determined as 5.5.
For the molecule `Cc1ncc2n1-c1ccc(Cl)cc1C(c1ccccc1F)=NC2` [Midazolam, midazolam], the half-life in “in vitro [8]” turned out to be 3.35 min; in “in vitro [15]”, 2.41 min. Also, the figures for the “Predicted EH” value in data set [9] and in [11] were 0.924 and 0.920, respectively. In addition, the Clint in data set [9] came to 1130 mL/min; in data set [11] (microsomes), 239 mL/min.
